How the values were obtained:
[1] = tested on: Western diet (WD) fed mice; assay: Western diet mouse model of diet-induced fatty liver disease: serum ALT, liver TG, histology, body weight; type: in vivo, mice (male B6 129SF1/J)
Method: Study design. The overall objective of the study was to investigate if […] can alleviate diet induced liver steatosis and inflammation in vivo. These NAFLD features were induced in mice by feeding the animals a WD and SW for 8 weeks. The drinking water for these mice was then supplemented with low and high doses of […], while continuing the WD for another 8 weeks. The phenotypic changes were assessed by measuring body weight gain, serum ALT, hepatic inflammatory cytokines, and histopathological examination of liver tissue. To investigate potential mechanisms of action, a series of omics analyses were performed on fecal material (metagenomics and metabolomics) and liver tissue (metabolomics and proteomics). To determine cell-type specific signaling mediating […] effects in macrophages, an in vitro cell culture model was used. The histopathological scoring of liver sections was blinded; all other analyses were not blinded. Sample processing and statistical analysis were performed concurrently on treatment and control groups using identical methods. Animal experiments. Male B6 129SF1/J mice at 6 weeks of age were obtained from Jackson Laboratories (Bar Harbor, ME). Mice were acclimatized to the animal facility for one week. At the start of the experiment, mice were randomly divided into four groups (n=10 for each group). Three of the four groups were fed ad libitum a Western diet (WD) with 40% Kcal from fat and containing 0.15% cholesterol (D12079B, Research Diets) and a sugar water (SW) solution (23.1 g/L d-fructose+18.9 g/L d-glucose) as previously described (DIAMOND model (15)). After 8 weeks, the three groups of WD-fed mice were randomly selected for treatment with vehicle (WD group) or low (WD-50 group) or high dose (WD-100 group) of […]. The WD group was fed WD and drank sugar water. The WD-50 and WD-100 groups were fed WD and drank sugar water containing, respectively, 50 or 100 mg […] per kg body weight. The treatments were continued for another 8 weeks. Water bottles containing SW and […] or only SW were changed every other day. A fourth group of mice was fed a low-fat control diet (D12450B, Research Diets) and normal water for 16 weeks (CN group) (FIG. 9A). FIG. 9A presents the study design. Mice belonging to the same treatment group were housed together (5 mice/cage). Mice were maintained on 12:12-h light-dark cycles. All procedures were performed in accordance with Texas A&M University Health Sciences Center Institutional Animal Care and Use Committee guidelines under an approved animal use protocol (AUP #2017-0145). Sample collection. Fecal pellets were collected every other week prior to […] treatment, right before […] treatment, every week during […] treatment, and on the last day of the experiments (FIG. 9B). FIG. 9B presents the sampling scheme. All fecal pellets were flash frozen in liquid nitrogen after collection. Blood samples from the submandibular vein were taken right prior to […] treatment, every other week during […] treatment and on the last day of the experiments. The blood samples were centrifuged at 4,000 g for 15 min at 4° C. to obtain serum. At the end of the experiment, the mice were sacrificed by euthanasia. The liver was quickly excised and rinsed with 10× volume of ice-cold PBS. The right medium lobe of the liver was fixed in 10% neutral formalin for histological analysis. A small piece from right lateral lobe was stored in RNAlater (Sigma Aldrich, St. Louis, MO) using the manufacturer's protocol. The remaining liver tissue samples were flash frozen in liquid nitrogen, homogenized in HPLC-grade water, lyophilized to a dry powder, and stored at -80° C. until further processing. Histological analysis. Formalin fixed liver were embedded in paraffin, sectioned (5 μm) and stained with hematoxylin and eosin (H&E) through VWR histological services (Radnor, PA). Liver histology sections were evaluated by an expert pathologist at Texas A&M University who was blinded to the treatment conditions. […]

free fatty acids = assay: Quantification of free fatty acids in liver and serum of WD mice; type: in vivo, mice (male B6 129SF1/J)
Description: Animal experiments. Male B6 129SF1/J mice at 6 weeks of age were obtained from Jackson Laboratories (Bar Harbor, ME). Mice were acclimatized to the animal facility for one week. At the start of the experiment, mice were randomly divided into four groups (n=10 for each group). Three of the four groups were fed ad libitum a Western diet (WD) with 40% Kcal from fat and containing 0.15% cholesterol (D12079B, Research Diets) and a sugar water (SW) solution (23.1 g/L d-fructose+18.9 g/L d-glucose) as previously described (DIAMOND model (15)). After 8 weeks, the three groups of WD-fed mice were randomly selected for treatment with vehicle (WD group) or low (WD-50 group) or high dose (WD-100 group) of […]. The WD group was fed WD and drank sugar water. The WD-50 and WD-100 groups were fed WD and drank sugar water containing, respectively, 50 or 100 mg […] per kg body weight. […] Quantification of free fatty acids. Serum and liver FFAs were analyzed using targeted LC-MS experiments performed on a quadrupole-time of flight instrument (TripleTOF 5600+, AB Sciex, Framingham, MA) as previously described with minor modifications (Tables 2 and 5). […] Free fatty acids (FFAs) in the liver and serum were quantified using product ion scan experiments (TripleTOF 5600+, AB Sciex, Framingham, MA). […] “Light” experiments with low collision energy were used for quantification. […]

[2] = tested on: palmitate and LPS stimulated macrophages; assay: Cytokine production in palmitate and LPS stimulated macrophages; type: cell-based
hepatocytes = assay: Cultured hepatocytes (lipid droplet loaded, TNF-α; Fasn/SREBP-1c expression); type: cell-based
[3] = week 16, dose-dependent, WD-50 and WD-100 vs WD

With `O=C([O-])Cc1c[nH]c2ccccc12.[Na+]` [I3A, Indole-3-acetate sodium salt] the “protection against steatosis and immune cell infiltration in livers” value ([1]; I3A up to 100 mg/kg body wt. in drinking water, 16 weeks WD, B6/129 mice) was “dose-dependently protected against these injuries”, the “serum alanine aminotransferase (ALT) levels” value ([1]; high dose I3A (WD-100, 100 mg/kg in drinking water) vs WD, week 10 and beyond) was “significantly reduced serum ALT levels” and the body weight increase ([1]; normalized to week 8 body weight, I3A treated vs WD) was “slowed the weight increase”. The “liver TG” value ([1]; week 16, WD-50 and WD-100 vs WD) was “reduced liver TG in a dose-dependent manner”, the “hepatocyte ballooning (H&E histology score)” value [1, 3] was “improved” and the “liver steatosis (H&E histology score)” value [1, 3] was “improved”. For the same compound, the “lobular inflammation (H&E histology score)” value [1, 3] was “improved”, the “liver total FFA concentration, significance of I3A effect” value (free fatty acids; I3A treatment vs WD) was “no significant effect” and the “liver total FFA concentration, reduction” value (free fatty acids; WD-100 group vs WD, p=0.11) was 36 % reduction. The “production of TNF-α, IL-1β, and MCP-1” value [2] was “dose-dependently attenuated the production of TNF-α, IL-1β, and MCP-1”, the “TNF-α induced production of saturated free fatty acids” value (hepatocytes; cultured hepatocytes loaded with lipid droplets (mimicking steatosis), AhR dependent) was “abrogated TNF-α induced production of saturated free fatty acids” and the “expression of Fasn and SREBP-1c” value (hepatocytes; hepatocytes, AhR dependent manner) was “decreased the expression of Fasn and its transcriptional regulator SREBP-1c”.
